System: primary OA
Assay: Randomized, single blind, placebo-controlled trial in painful osteoarthritis
Assay type: in vivo, patients
Settings: 42 days treatment
Procedure: The present trial was earned out to evaluate the effectiveness of the composition of the invention in the treatment of painful OA [a randomized, single blind, placebo-controlled trial]. 120 patients (37 males and 83 females) with primary OA received either the composition of the invention (500 mg twice daily) or Glucosamine sulphate (750 mg twice daily) or placebo (500 mg twice daily) or combination of the composition of the invention and Glucosamine sulphate for 42 days. During the treatment period two follow up visits on day 21st and day 42nd, efficacy was evaluated in terms of change in the intensity/severity of symptoms (as measured by VAS, WOMAC scale) and examination by orthopaedician (as measured by CGIC).

N[C@H]1C(O)O[C@H](CO)[C@@H](O)[C@@H]1O.O=S(=O)(O)O (stereo partly shown) [Glucosamine sulphate]
signs and symptoms of OA: Overall improvement
